Assay results: patent US20260374818A1, “CATIONIC PEPTIDES WITH BROAD SPECTRUM ACTIVITY” (priority 2023, published 2026)
Where a SMILES comes first, the peptide text is derived from it. [ ]: non-standard residue; d: D form.

Key:
[1] = tested on: MRSA biofilms on N/TERT epithelial skin; experiment: Skin organoid biofilm model, peptide-loaded collagen dressings, MRSA; assay type: cell-based, methicillin resistant Staphylococcus aureus; conditions: compared to DJK-5 and ciprofloxacin
[2] = tested on: human bronchiolar epithelial cells (HBEs); experiment: Cytotoxicity (LDH release), human bronchiolar epithelial cells
MRSA USA300 biofilms = experiment: Biofilm inhibition by >95% pure peptides (crystal violet), MRSA; assay type: cell-based, methicillin resistant Staphylococcus aureus; conditions: MRSA, 24 hours
[3] = Peptide aggregation in RPMI + 10% FBS with PBMCs (microscopy); assay type: physicochemical; conditions: 50 μg/ml, overnight
How it was run: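 Peptides added to human PBMCs in RPMI with 10% FBS, incubated overnight at 37 °C, 5% CO2; aggregation assessed qualitatively by inverted light microscopy at 10× magnification.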

[4] = tested on: peripheral blood mononuclear cells (PBMCs); experiment: Cytotoxicity (LDH release), PBMCs
[5] = tested on: 3-day-old oral plaque (multispecies) biofilms; experiment: Oral plaque biofilm model, long-term (1-3 days) exposure, dead cell volume; assay type: cell-based; conditions: for Proportion of dead biofilm cells: daily for 3 days, compared to DJK5 (FIG. 16A)
[6] = tested on: P. aeruginosa biofilms on N/TERT epithelial skin; experiment: Skin organoid biofilm model, peptide-loaded collagen dressings, P. aeruginosa; assay type: cell-based, Pseudomonas aeruginosa; conditions: compared to DJK-5 and ciprofloxacin
MRSA preformed biofilms = experiment: Biofilm eradication of 24-hr preformed biofilms (TTC metabolic dye), MRSA; assay type: cell-based, methicillin resistant Staphylococcus aureus; conditions: 24-hr preformed biofilms treated overnight
[7] = tested on: P. aeruginosa PAO1 biofilms
N/TERT keratinocytes = experiment: Cytotoxicity (LDH release), N/TERT keratinocytes
[8] = tested on: PAO1 biofilms on human skin organoid; experiment: Skin organoid biofilm infection model, peptide solution, PAO1; assay type: cell-based, Pseudomonas aeruginosa; conditions: peptide solution 4 hrs (FIG. 3B)
[9] = tested on: MRSA biofilms on human skin organoid; experiment: Skin organoid biofilm infection model, peptide solution, MRSA; assay type: cell-based, methicillin resistant Staphylococcus aureus; conditions: peptide solution 4 hrs (FIG. 3A)
P. aeruginosa LESB58 = experiment: Murine model of abscess infections; assay type: in vivo, murine; Pseudomonas aeruginosa
[10] = tested on: Enterococcus faecium #2-1; experiment: Biofilm inhibition (at least 80%), E. faecium; assay type: cell-based; conditions: E. faecium #2-1; n = 3; TSB + 1% glucose; 48 hours; crystal violet
[11] = tested on: 3-day-old oral plaque biofilms; experiment: Oral plaque biofilm model, brief (1 minute) exposure, dead cell volume; assay type: cell-based; conditions: 10 μg/mL, 1 minute (FIG. 11)
E. coli O157:H7 = experiment: Biofilm inhibition (at least 80%), E. coli; assay type: cell-based, Escherichia coli; conditions: n = 3, BM2 minimal media, 18-24 hours, crystal violet
[12] = tested on: Klebsiella pneumonia KPLN649; experiment: Biofilm inhibition (at least 80%), K. pneumonia; assay type: cell-based; conditions: K. pneumoniae KPLN649; n = 3; BM2 minimal media; 48 hours; crystal violet
[13] = tested on: Enterobacter cloacae 218R1; experiment: Biofilm inhibition (at least 80%), E. cloacae; assay type: cell-based; conditions: E. cloacae 218R1; n = 3; BM2 minimal media; 18-24 hours; crystal violet
P. aeruginosa PAO1 = experiment: Biofilm inhibition (at least 80%), P. aeruginosa; assay type: cell-based, Pseudomonas aeruginosa; conditions: n = 4, BM2 minimal media, 18-24 hours, crystal violet
[14] = tested on: Acinetobacter baumannii Ab5075; experiment: Biofilm inhibition (at least 80%), A. baumannii; assay type: cell-based; conditions: n = 4, BM2 minimal media, 18-24 hours, crystal violet
red blood cells = experiment: Hemolysis; assay type: cell-based, human; conditions: 4 hours
Description: Hemolysis: Peptide induced hemolysis was evaluated according to methods described previously [Hilchie, A. L., et al. (2016). Mastoparan is a membranolytic anti-cancer peptide that works synergistically with gemcitabine in a mouse model of mammary carcinoma. Biochimica Et Biophysica Acta, 1858(12), 3195-3204]. Briefly, red blood cells were obtained, with human ethics approval, from the blood of healthy volunteers collected in a sodium heparin tube and then rinsed three times in PBS, centrifuging between washes, to obtain the hematocrit (100% RBC). A 2.5% RBCs suspension was exposed to peptide at varying concentrations and incubated at 37 C in a 5% CO2 humidified atmosphere for 4 hours. Supernatants were collected following centrifugation (1100 rpm) and transferred to a flat bottom microtitre plate. The absorbance (490 nm) of each supernatant was measured on a BioTek Epoch Microplate Spectrophotometer. Percent hemolysis was calculated by comparing the absorbance arising from peptide treated cells to RBCs treated with […] (0% hemolysis) or lysed with 1% Triton X-100 (100% hemolysis).

MRSA USA300 = experiment: Biofilm inhibition (at least 80%), MRSA; assay type: cell-based, methicillin resistant Staphylococcus aureus; conditions: n = 4, 10% TSB + 0.1% glucose, 18-24 hours, crystal violet

CC[C@@H](C)[C@@H](NC(=O)[C@@H](CCCNC(=N)N)NC(=O)[C@H](N)CCCCN)C(=O)N[C@H](CCCNC(=N)N)C(=O)N[C@H](Cc1c[nH]c2ccccc12)C(=O)N[C@@H](C(=O)N[C@@H](C(=O)N[C@H](CC(C)C)C(=O)N[C@H](CCCNC(=N)N)C(=O)N[C@@H](C(=O)N[C@@H](C(=O)N[C@H](CCCNC(=N)N)C(N)=O)[C@H](C)CC)C(C)C)[C@H](C)CC)C(C)C [AB101-D, krirwvilrvir-NH2] (H-[dK][dR][dI][dR][dW][dV][dI][dL][dR][dV][dI][dR]-NH2)
Antibiofilm activity from collagen dressing [1]: clearly superior activity to both DJK-5 and ciprofloxacin | Cytotoxicity (LDH) [2]: low toxicity | Enhanced antibiofilm eradication activity (PAO1 preformed biofilms; P. aeruginosa, compared with DJK5): > 2 fold | IC50 (PAO1 preformed biofilms; read-out: Biofilm Eradication IC50, PAO1, 24-hr preformed biofilms treated overnight, TTC): 1900 nM | IC50 (MRSA USA300 biofilms): 270 nM | Peptide aggregation [3]: some small aggregates | Cytotoxicity (LDH) [4]: low toxicity | Proportion of dead biofilm cells ([5]; 10 μg/ml): superior to DJK5 at killing bacteria cells | Proportion of dead biofilm cells ([5]; 1 or 5 μg/ml): killed more of the biofilm cells | Antibiofilm activity from collagen dressing [6]: clearly superior activity to both DJK-5 and ciprofloxacin | IC50 (MRSA preformed biofilms): 1400 nM | Biofilm inhibition activity compared to DJK5 ([7]; P. aeruginosa): ≥ 4 fold | IC50 ([7]; read-out: Biofilm Inhibition IC50, PAO1, 24 hours, crystal violet): 1100 nM | Cytotoxicity (LDH) (N/TERT keratinocytes): low toxicity | Antibiofilm activity on skin organoid [8]: excellent antibiofilm activity | Antibiofilm activity on skin organoid [9]: excellent antibiofilm activity | Abscess size (P. aeruginosa LESB58): reduced abscess size

CC[C@@H](C)[C@@H](NC(=O)[C@@H](C)NC(=O)[C@@H](CCCNC(=N)N)NC(=O)[C@@H](Cc1c[nH]c2ccccc12)NC(=O)[C@@H](CCC(N)=O)NC(=O)[C@H](N)C(C)C)C(=O)N[C@H](CCCNC(=N)N)C(=O)N[C@@H](C(=O)N[C@@H](C(=O)N[C@@H](C(=O)N[C@@H](C(=O)N[C@H](CCCNC(=N)N)C(N)=O)[C@H](C)CC)C(C)C)[C@H](C)CC)C(C)C [AB107-D, vqwrairvivir-NH2] (H-[dV][dQ][dW][dR][dA][dI][dR][dV][dI][dV][dI][dR]-NH2)
Peptide/Antibiotic Concentration where at least 80% of biofilm growth was inhibited [10]: 1 µg/mL | Broad spectrum antibiofilm activity, more active than DJK5 (ESKAPEE Pathogens): 2-4 fold | Killing of oral plaque biofilms, brief exposure [11]: comparable to or better than peptide DJK-5 | Peptide/Antibiotic Concentration where at least 80% of biofilm growth was inhibited (E. coli O157:H7): 1 µg/mL | Peptide/Antibiotic Concentration where at least 80% of biofilm growth was inhibited [12]: 4 µg/mL | Cytotoxicity (LDH) [4]: non-toxic at all concentrations evaluated | Killing of oral plaque biofilms, long-term exposure ([5]; 10 μg/mL, 1 or 3 days (FIG. 10)): significantly enhanced killing of the oral plaque biofilms | Peptide/Antibiotic Concentration where at least 80% of biofilm growth was inhibited [13]: 1 µg/mL | Peptide/Antibiotic Concentration where at least 80% of biofilm growth was inhibited (P. aeruginosa PAO1): 4 µg/mL | Peptide/Antibiotic Concentration where at least 80% of biofilm growth was inhibited [14]: 1 µg/mL | Hemolysis (red blood cells): non-toxic at all concentrations evaluated | Peptide/Antibiotic Concentration where at least 80% of biofilm growth was inhibited (MRSA USA300): 1 µg/mL
